ChEMBL document CHEMBL1201862, “PubChem BioAssay data set” (2004)
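How tested: cells in 96-well plates exposed to compound for 48 hours at five concentrations. GI50 is the concentration that inhibits growth by half.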 The source made the active and inactive calls. No stated cut-off is given here; in the data, active = GI50 up to about 1.1 µM and inactive = higher.

How the values were obtained:
Assay in all cases: NCI tumour cell line growth inhibition, 48 h
[1] = tested on: SF-268
[2] = tested on: HOP-18
[3] = tested on: SK-OV-3
[4] = tested on: SNB-78
[5] = tested on: NCI-H23
[6] = tested on: UO-31
[7] = tested on: MDA-MB-435
[8] = tested on: HCT-15
[9] = tested on: OVCAR-5
[10] = tested on: IGROV-1
[11] = tested on: SK-MEL-5
[12] = tested on: OVCAR-4
[13] = tested on: NCI-H460
[14] = tested on: MDA-MB-231
[15] = tested on: Malme-3M
[16] = tested on: SK-MEL-2
[17] = tested on: HCC 2998
[18] = tested on: LXFL 529
[19] = tested on: CAKI-1
[20] = tested on: KM12
[21] = tested on: DMS-114
[22] = tested on: NCI-H226
[23] = tested on: HOP-62
[24] = tested on: HL-60
[25] = tested on: Hs-578T
[26] = tested on: M14
[27] = tested on: DLD-1
[28] = tested on: TK-10
[29] = tested on: A549
[30] = tested on: XF498
[31] = tested on: MCF7
[32] = tested on: A498
[33] = tested on: SW-620
[34] = tested on: ACHN
[35] = tested on: SNB-19
[36] = tested on: BT-549
[37] = tested on: OVCAR-3
[38] = tested on: LOX IMVI
[39] = tested on: 786-0
[40] = tested on: MDA-N
[41] = tested on: MOLT-4
[42] = tested on: RXF 393
[43] = tested on: SN12C
[44] = tested on: SF-295
[45] = tested on: KM-20L2
[46] = tested on: M19-MEL
[47] = tested on: RXF 631
[48] = tested on: DU-145
[49] = tested on: SNB-75
[50] = tested on: U-251
[51] = tested on: COLO 205
[52] = tested on: T47D
[53] = tested on: DMS-273
[54] = tested on: K562
[55] = tested on: EKVX
[56] = tested on: OVCAR-8
[57] = tested on: SK-MEL-28
[58] = tested on: HCT-116
[59] = tested on: UACC-257
[60] = tested on: NCI-H522
[61] = tested on: PC-3
[62] = tested on: UACC-62
[63] = tested on: HOP-92
[64] = tested on: CCRF-CEM
[65] = tested on: SF-539
[66] = tested on: HT-29
[67] = tested on: SR
[68] = tested on: RPMI-8226

C=C1C(=O)O[C@@H]2C[C@@H](C)[C@@H]3C=CC(=O)[C@@]3(C)[C@@H](OC(=O)CC(=O)O[C@H]3[C@@H]4C(=C)C(=O)O[C@@H]4C[C@@H](C)[C@@H]4C=CC(=O)[C@]43C)[C@H]12
GI50 [1]: 58.2 nM (active) | GI50 [2]: 110 nM (active) | GI50 [3]: 256 nM (active) | GI50 [4]: 15.3 nM (active) | GI50 [5]: 34.5 nM (active) | GI50 [6]: 137 nM (active) | GI50 [7]: 35.6 nM (active) | GI50 [8]: 30.9 nM | GI50 [9]: 178 nM (active) | GI50 [10]: 173 nM (active) | GI50 [11]: 86.9 nM (active) | GI50 [12]: 46.8 nM (active) | GI50 [13]: 161 nM (active) | GI50 [14]: 55.2 nM (active) | GI50 [15]: 17.4 nM (active) | GI50 [16]: 89.3 nM (active) | GI50 [17]: 146 nM (active) | GI50 [18]: < 11.7 nM (active) | GI50 [19]: 23.8 nM (active) | GI50 [20]: 47.8 nM (active) | GI50 [21]: 31.2 nM (active) | GI50 [22]: 102 nM (active) | GI50 [23]: 440 nM (active) | GI50 [24]: < 10 nM (active) | GI50 [25]: 167 nM (active) | GI50 [26]: 23.5 nM (active) | GI50 [27]: < 10 nM (active) | GI50 [28]: 117 nM (active) | GI50 [29]: 431 nM (active) | GI50 [30]: 21.3 nM (active) | GI50 [31]: 35.6 nM (active) | GI50 [32]: 213 nM (active) | GI50 [33]: 12.9 nM (active) | GI50 [34]: 30 nM (active) | GI50 [35]: 548 nM (active) | GI50 [36]: 38.6 nM (active) | GI50 [37]: 33 nM (active) | GI50 [38]: < 33.5 nM (active) | GI50 [39]: 19.9 nM (active) | GI50 [40]: 75.5 nM (active) | GI50 [41]: 15.3 nM (active) | GI50 [42]: < 11.2 nM (active) | GI50 [43]: 34.8 nM (active) | GI50 [44]: 115 nM (active) | GI50 [45]: 77.1 nM (active) | GI50 [46]: 14.1 nM (active) | GI50 [47]: 98.9 nM (active) | GI50 [48]: 2560 nM (inactive) | GI50 [49]: 136 nM (active) | GI50 [50]: 35.6 nM (active) | GI50 [51]: < 14.8 nM (active) | GI50 [52]: 179 nM (active) | GI50 [53]: 33.6 nM (active) | GI50 [54]: 15.4 nM (active) | GI50 [55]: 81.1 nM (active) | GI50 [56]: 29.9 nM (active) | GI50 [57]: 39.8 nM (active) | GI50 [58]: 14.3 nM (active) | GI50 [59]: 25.2 nM (active) | GI50 [60]: < 10 nM (active) | GI50 [61]: 146 nM (active) | GI50 [62]: 30.6 nM (active) | GI50 [63]: 29.6 nM (active) | GI50 [64]: < 10 nM (active) | GI50 [65]: 25.2 nM (active) | GI50 [66]: 34.2 nM (active) | GI50 [67]: 10.3 nM (active) | GI50 [68]: 12.4 nM (active)
